Test results as given in patent publication US20120059240A1, “METHOD FOR PREPARATION OF MICELLAR HYBRID NANOPARTICLES FOR THERAPEUTIC AND DIAGNOSTIC APPLICATIONS AND COMPOSITIONS THEREOF” (MASSACHUSETTS INSTITUTE OF TECHNOLOGY, priority 2008, published 2012).

System: MDA-MB-435 human carcinoma cells
Test: Intracellular drug delivery of DOX (fluorescence microscopy)
Assay type: cell-based
Conditions: after 30 min of incubation
Description: For in vitro studies, MDA-MB-435 human carcinoma cells were maintained in Dulbecco's Modified Eagle's Medium (DMEM) supplemented with 10% fetal bovine serum (FBS) and 100 μg/ml penicillin-streptomycin. For fluorescence microscopy, the cells (3000 cells per well) were seeded into 8-well chamber slides (Lab-Tek) overnight. The cells were then incubated with 50 μg of MHN or F3-MHN per well for 2 h (for intracellular targeting) and 50 μg of DOX-loaded F3-MHN (0.093 mg DOX per mg MHN) or 4.5 μg of free DOX (equivalent with DOX amount for DOX-loaded F3-MHN) physically mixed with 50 μg of F3-MHN per well for 30 min, 2 h, and 24 h (for intracellular drug delivery) at 37° C. in the presence of 10% FBS. For the intracellular targeting study, the cells were observed without any fixation using an inverted fluorescence microscope (Nikon, Tokyo, Japan). For the intracellular drug delivery study, the cells were fixed with 4% paraformaldehyde for 20 min, mounted in Vectashield Mounting Medium with 4′,6-diamidino-2-phenylindole (DAPI; Vector Laboratories, Burlingame, Calif.), and observed with a fluorescence microscope. […]

## COc1cccc2c1C(=O)c1c(O)c3c(c(O)c1C2=O)C[C@@](O)(C(=O)CO)C[C@@H]3O[C@H]1C[C@H](N)[C@H](O)[C@H](C)O1 [free DOX, doxorubicin]
  Location of DOX fluorescence signal in cells: almost all of the DOX fluorescence signal was observed in the cell nuclei
